Results published in ChEMBL document CHEMBL1201862, “PubChem BioAssay data set” (2004).
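How tested: cells in 96-well plates exposed to compound for 48 hours at five concentrations. Abbreviation: GI50, concentration required for 50% inhibition of growth.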 Active and inactive are the calls of the source. Rule as the data show it: active = GI50 up to about 1.1 µM and inactive = higher.

Assays:
Test in all cases: growth of human tumour cells (NCI), 48 h
786-0 = system: 786-0
DU-145 = system: DU-145
EKVX = system: EKVX
HCT-15 = system: HCT-15
HOP-62 = system: HOP-62
IGROV-1 = system: IGROV-1
LOX IMVI = system: LOX IMVI
MCF7 = system: MCF7
Malme-3M = system: Malme-3M
NCI-H23 = system: NCI-H23
NCI/ADR-RES = system: NCI/ADR-RES
OVCAR-3 = system: OVCAR-3
OVCAR-5 = system: OVCAR-5
OVCAR-8 = system: OVCAR-8
RPMI-8226 = system: RPMI-8226
RXF 393 = system: RXF 393
SK-MEL-28 = system: SK-MEL-28
SW-620 = system: SW-620
UACC-257 = system: UACC-257
UO-31 = system: UO-31

**Q.** How did the GI50 (786-0) turn out when `CCN1CN(c2ccccc2)C2(CCN(CCCSc3ccc(F)cc3)CC2)C1=O` was run?
**A.** The GI50 was 13.7 µM (inactive).

**Q.** What about the GI50 (DU-145) of the same compound?
**A.** Its GI50 is 4.65 µM (inactive).

**Q.** And the GI50 (EKVX)?
**A.** The GI50 was 4.89 µM (inactive).

**Q.** What about the GI50 (HCT-15) of the same compound?
**A.** Its GI50 is 11 µM.

**Q.** What about the GI50 (HOP-62) of the same compound?
**A.** Its GI50 is 4.31 µM (inactive).

**Q.** And the GI50 (IGROV-1)?
**A.** Its GI50 is 5.3 µM (inactive).

**Q.** What about the GI50 (LOX IMVI) of the same compound?
**A.** Its GI50 is 14.3 µM (inactive).

**Q.** What about the GI50 (MCF7) of the same compound?
**A.** The GI50 was 3.48 µM (inactive).

**Q.** And the GI50 (Malme-3M)?
**A.** Its GI50 is 19.9 µM (inactive).

**Q.** And the GI50 (NCI-H23)?
**A.** The GI50 was 10.4 µM (inactive).

**Q.** And the GI50 (NCI/ADR-RES)?
**A.** The GI50 was 12.2 µM (inactive).

**Q.** And the GI50 (OVCAR-3)?
**A.** The GI50 was 13.9 µM (inactive).

**Q.** What about the GI50 (OVCAR-5) of the same compound?
**A.** The GI50 was 5.19 µM (inactive).

**Q.** What about the GI50 (OVCAR-8) of the same compound?
**A.** The GI50 was 14.8 µM (inactive).

**Q.** What about the GI50 (RPMI-8226) of the same compound?
**A.** Its GI50 is 10.1 µM (inactive).

**Q.** And the GI50 (RXF 393)?
**A.** The GI50 was 12.9 µM (inactive).

**Q.** What about the GI50 (SK-MEL-28) of the same compound?
**A.** Its GI50 is 17.3 µM (inactive).

**Q.** And the GI50 (SW-620)?
**A.** The GI50 was 7.29 µM (inactive).

**Q.** What about the GI50 (UACC-257) of the same compound?
**A.** Its GI50 is 6.11 µM (inactive).

**Q.** And the GI50 (UO-31)?
**A.** Its GI50 is 5.97 µM (inactive).

**Q.** Which results are given for `Cn1cnc(C(N)=[Se])c1N`?
**A.** GI50 (786-0): 2.13 µM (inactive); GI50 (DU-145): 4.1 µM (inactive); GI50 (EKVX): 2.05 µM (inactive); GI50 (HCT-15): 3.63 µM; GI50 (HOP-62): 2.46 µM (inactive); GI50 (IGROV-1): 1.33 µM (inactive); GI50 (LOX IMVI): 3.26 µM (inactive); GI50 (MCF7): 3.15 µM (inactive); GI50 (Malme-3M): 2.69 µM (inactive); GI50 (NCI-H23): 3 µM (inactive); GI50 (NCI/ADR-RES): 1.89 µM (inactive); GI50 (OVCAR-3): 2.03 µM (inactive); GI50 (OVCAR-5): 3.56 µM (inactive); GI50 (OVCAR-8): 1.92 µM (inactive); GI50 (RPMI-8226): 2.94 µM (inactive); GI50 (RXF 393): 1.6 µM (inactive); GI50 (SK-MEL-28): 3.39 µM (inactive); GI50 (SW-620): 4.19 µM (inactive); GI50 (UACC-257): 7.24 µM (inactive); GI50 (UO-31): 2.07 µM (inactive)

**Q.** `O=C(CN1CCN(C(=O)OCc2ccccc2)CCN(CC(=O)N2CCCCC2)CCN(C(=O)OCc2ccccc2)CC1)N1CCCCC1` was tested. Which GI50 (786-0) did it give?
**A.** The GI50 was 13.8 µM (inactive).

**Q.** What about the GI50 (DU-145) of the same compound?
**A.** The GI50 was 21.4 µM (inactive).

**Q.** What about the GI50 (EKVX) of the same compound?
**A.** The GI50 was 24.9 µM (inactive).

**Q.** And the GI50 (HCT-15)?
**A.** The GI50 was 17.9 µM.

**Q.** What about the GI50 (HOP-62) of the same compound?
**A.** Its GI50 is 19.5 µM (inactive).

**Q.** And the GI50 (IGROV-1)?
**A.** The GI50 was 10.3 µM (inactive).

**Q.** And the GI50 (LOX IMVI)?
**A.** The GI50 was 14.5 µM (inactive).

**Q.** What about the GI50 (MCF7) of the same compound?
**A.** Its GI50 is 17.1 µM (inactive).

**Q.** And the GI50 (Malme-3M)?
**A.** The GI50 was 8.38 µM (inactive).

**Q.** And the GI50 (NCI-H23)?
**A.** The GI50 was 20.7 µM (inactive).

**Q.** What about the GI50 (NCI/ADR-RES) of the same compound?
**A.** The GI50 was 10.9 µM (inactive).

**Q.** And the GI50 (OVCAR-3)?
**A.** The GI50 was 10.7 µM (inactive).

**Q.** What about the GI50 (OVCAR-5) of the same compound?
**A.** The GI50 was 19.6 µM (inactive).

**Q.** What about the GI50 (OVCAR-8) of the same compound?
**A.** Its GI50 is 8.61 µM (inactive).

**Q.** What about the GI50 (RPMI-8226) of the same compound?
**A.** Its GI50 is 13.4 µM (inactive).

**Q.** What about the GI50 (RXF 393) of the same compound?
**A.** Its GI50 is 11.9 µM (inactive).

**Q.** What about the GI50 (SK-MEL-28) of the same compound?
**A.** The GI50 was 14.7 µM (inactive).

**Q.** What about the GI50 (SW-620) of the same compound?
**A.** The GI50 was 19.6 µM (inactive).

**Q.** What about the GI50 (UACC-257) of the same compound?
**A.** The GI50 was 3.49 µM (inactive).

**Q.** And the GI50 (UO-31)?
**A.** Its GI50 is 3.19 µM (inactive).

**Q.** Which results are given for `COc1cc(C2S/C(=C/c3ccccc3)C(=O)N2c2cc(Cl)c(Cl)cc2Cl)cc(OC)c1OC` (stereo not given)?
**A.** GI50 (786-0): 38.3 µM (inactive); GI50 (DU-145): 30.2 µM (inactive); GI50 (EKVX): 9.66 µM (inactive); GI50 (HCT-15): 28.7 µM; GI50 (HOP-62): 28.4 µM (inactive); GI50 (IGROV-1): 23.9 µM (inactive); GI50 (LOX IMVI): 24.2 µM (inactive); GI50 (MCF7): 30.4 µM (inactive); GI50 (Malme-3M): 26.2 µM (inactive); GI50 (NCI-H23): 43.2 µM (inactive); GI50 (NCI/ADR-RES): 30.6 µM (inactive); GI50 (OVCAR-3): 24.2 µM (inactive); GI50 (OVCAR-5): 41.4 µM (inactive); GI50 (OVCAR-8): 40 µM (inactive); GI50 (RPMI-8226): 24.6 µM (inactive); GI50 (RXF 393): > 100 µM (inactive); GI50 (SK-MEL-28): > 64 µM (inactive); GI50 (SW-620): 47.6 µM (inactive); GI50 (UACC-257): 54.5 µM (inactive); GI50 (UO-31): 26.7 µM (inactive)

**Q.** `O=C(/C=C/c1ccc(Oc2cc(C(=O)/C=C/c3ccc(O)cc3)c(O)cc2O)cc1)c1ccc(O)cc1O` [RHUSCHALCONE II] was tested. Which GI50 (786-0) did it give?
**A.** The GI50 was 3.59 µM (inactive).

**Q.** And the GI50 (DU-145)?
**A.** Its GI50 is 3.38 µM (inactive).

**Q.** What about the GI50 (EKVX) of the same compound?
**A.** The GI50 was 13.2 µM (inactive).

**Q.** What about the GI50 (HCT-15) of the same compound?
**A.** The GI50 was 5.97 µM.

**Q.** And the GI50 (HOP-62)?
**A.** The GI50 was 5.38 µM (inactive).

**Q.** And the GI50 (IGROV-1)?
**A.** The GI50 was 3.38 µM (inactive).

**Q.** What about the GI50 (LOX IMVI) of the same compound?
**A.** The GI50 was 5.47 µM (inactive).

**Q.** And the GI50 (MCF7)?
**A.** The GI50 was 4.26 µM (inactive).

**Q.** And the GI50 (Malme-3M)?
**A.** Its GI50 is 10.6 µM (inactive).

**Q.** What about the GI50 (NCI-H23) of the same compound?
**A.** The GI50 was 6.19 µM (inactive).

**Q.** And the GI50 (NCI/ADR-RES)?
**A.** The GI50 was 3.85 µM (inactive).

**Q.** And the GI50 (OVCAR-3)?
**A.** The GI50 was 3.42 µM (inactive).

**Q.** And the GI50 (OVCAR-5)?
**A.** The GI50 was 5.27 µM (inactive).

**Q.** And the GI50 (OVCAR-8)?
**A.** Its GI50 is 2.64 µM (inactive).

**Q.** And the GI50 (RPMI-8226)?
**A.** The GI50 was 2.86 µM (inactive).

**Q.** And the GI50 (RXF 393)?
**A.** Its GI50 is 4.97 µM (inactive).

**Q.** What about the GI50 (SK-MEL-28) of the same compound?
**A.** The GI50 was 2.52 µM (inactive).

**Q.** And the GI50 (SW-620)?
**A.** The GI50 was 4.82 µM (inactive).

**Q.** What about the GI50 (UACC-257) of the same compound?
**A.** The GI50 was 12.7 µM (inactive).

**Q.** What about the GI50 (UO-31) of the same compound?
**A.** Its GI50 is 6.3 µM (inactive).
